Reference: ChEMBL document CHEMBL1121801, “Salicylamide derivatives related to medroxalol with alpha- and beta-adrenergic antagonist and antihypertension activity” (J Med Chem, 1981)

Legend:
[1] = biological target: T1, Adrenergic receptor alpha-1 (Homo sapiens, UniProt P35348+P25100+P35368); assay: In vitro blocking activity against alpha adrenergic receptor, isolated from rabbit aortic strip; format: protein assay, Oryctolagus cuniculus
T1 sequence (P35348 whole entry): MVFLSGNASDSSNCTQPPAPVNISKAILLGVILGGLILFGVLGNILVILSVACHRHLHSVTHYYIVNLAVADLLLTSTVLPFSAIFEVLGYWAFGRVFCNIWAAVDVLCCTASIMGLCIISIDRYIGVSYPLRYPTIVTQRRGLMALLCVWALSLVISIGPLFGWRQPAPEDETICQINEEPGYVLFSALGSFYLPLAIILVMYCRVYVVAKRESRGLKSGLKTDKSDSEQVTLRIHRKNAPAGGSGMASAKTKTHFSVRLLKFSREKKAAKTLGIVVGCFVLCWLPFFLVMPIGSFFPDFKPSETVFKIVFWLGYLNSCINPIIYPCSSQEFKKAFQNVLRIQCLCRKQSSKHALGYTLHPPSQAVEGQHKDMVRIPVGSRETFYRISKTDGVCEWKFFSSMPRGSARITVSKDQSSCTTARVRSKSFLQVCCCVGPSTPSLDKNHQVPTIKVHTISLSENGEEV
T1 sequence (P25100 whole entry): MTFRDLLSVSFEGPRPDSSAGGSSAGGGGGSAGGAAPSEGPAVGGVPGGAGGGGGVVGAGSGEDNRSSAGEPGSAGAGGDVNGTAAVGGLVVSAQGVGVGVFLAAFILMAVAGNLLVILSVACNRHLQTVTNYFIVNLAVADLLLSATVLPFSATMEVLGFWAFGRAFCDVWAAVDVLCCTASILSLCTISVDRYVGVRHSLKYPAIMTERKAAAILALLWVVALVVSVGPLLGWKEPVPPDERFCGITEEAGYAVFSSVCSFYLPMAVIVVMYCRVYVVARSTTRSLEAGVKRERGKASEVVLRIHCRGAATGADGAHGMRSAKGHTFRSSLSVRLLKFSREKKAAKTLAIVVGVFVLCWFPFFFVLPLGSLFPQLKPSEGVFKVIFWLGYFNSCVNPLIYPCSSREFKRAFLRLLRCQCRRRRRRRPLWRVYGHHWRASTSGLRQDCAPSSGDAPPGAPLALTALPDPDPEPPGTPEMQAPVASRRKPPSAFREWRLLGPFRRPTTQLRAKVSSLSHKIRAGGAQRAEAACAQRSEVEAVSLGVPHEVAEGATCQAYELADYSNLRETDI
T1 sequence (P35368 whole entry): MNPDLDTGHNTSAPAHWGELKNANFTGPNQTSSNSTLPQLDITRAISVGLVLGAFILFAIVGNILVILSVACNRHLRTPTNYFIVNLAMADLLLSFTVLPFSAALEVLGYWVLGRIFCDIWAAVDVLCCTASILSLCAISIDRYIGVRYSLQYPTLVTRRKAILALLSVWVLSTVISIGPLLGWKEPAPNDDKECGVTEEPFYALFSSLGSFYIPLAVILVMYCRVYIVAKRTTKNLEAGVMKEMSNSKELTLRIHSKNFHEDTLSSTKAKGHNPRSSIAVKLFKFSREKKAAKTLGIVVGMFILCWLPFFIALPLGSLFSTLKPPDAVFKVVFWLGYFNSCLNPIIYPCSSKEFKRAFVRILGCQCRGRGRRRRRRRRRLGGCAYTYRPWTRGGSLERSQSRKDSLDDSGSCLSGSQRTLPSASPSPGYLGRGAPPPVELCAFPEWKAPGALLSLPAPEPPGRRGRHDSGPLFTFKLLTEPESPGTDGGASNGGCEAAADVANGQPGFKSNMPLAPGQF

Cavia porcellus = species on record: Cavia porcellus; assay: spasmolytic activity in isolated guinea pig ileum preparation;- log KB; (Bacl2); format: functional, organism-based; conditions: read-out: pA2 (converted)
Rattus norvegicus [2] = assay: Antihypertensive activity in spontaneously hypertensive rats(SHR) at 50 mg/kg peroral dose after 1 h, expressed as decrease in systolic blood pressure; format: functional, Artery; conditions: route oral
Rattus norvegicus [3] = assay: Antihypertensive activity in spontaneously hypertensive rats(SHR) at 50 mg/kg peroral dose after 4 h, expressed as decrease in systolic blood pressure; format: functional, Artery; conditions: route oral
Oryctolagus cuniculus = species on record: Oryctolagus cuniculus; assay: Ratio of pA2 for beta-adrenergic receptor to that of alpha-adrenergic receptor
Adrenergic receptor beta = Adrenergic receptor beta (Homo sapiens, UniProt P08588+P07550+P13945); assay: In vitro blocking activity against beta adrenergic receptor, isolated from guinea pig atria; format: protein assay
[4] = biological target: Beta-2 adrenergic receptor (Canis lupus familiaris) (UniProt P54833);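 further: Beta-2 blockade of isoproterenol-induced vasodepression in anesthetized dogs, given intravenously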
Beta-2 adrenergic receptor (Canis lupus familiaris), sequence (P54833 whole entry, looked up): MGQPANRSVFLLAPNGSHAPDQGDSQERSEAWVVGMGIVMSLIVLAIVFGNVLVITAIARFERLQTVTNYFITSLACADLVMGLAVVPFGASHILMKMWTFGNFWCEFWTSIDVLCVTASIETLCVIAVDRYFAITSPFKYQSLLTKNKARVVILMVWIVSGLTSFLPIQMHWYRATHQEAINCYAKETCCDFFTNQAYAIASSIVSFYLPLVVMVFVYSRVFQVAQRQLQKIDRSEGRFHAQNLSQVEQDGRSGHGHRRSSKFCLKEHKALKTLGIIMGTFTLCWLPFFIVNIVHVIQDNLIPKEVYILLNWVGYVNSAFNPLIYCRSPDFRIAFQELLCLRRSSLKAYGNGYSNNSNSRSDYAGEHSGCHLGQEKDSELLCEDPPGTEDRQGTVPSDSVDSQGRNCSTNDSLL
Description: In vivo sympatholytic activity (isoproterenol-induced vasodepression) at beta 2-adrenergic receptor in anesthetized dog, iv

[5] = biological target: Beta-1 adrenergic receptor (Homo sapiens) (UniProt P08588); conditions: Canis lupus familiaris;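 further: anesthetized dogs dosed intravenously, sympatholytic action measured as inhibition of the chronotropic response to isoproterenol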
Beta-1 adrenergic receptor (Homo sapiens), sequence (P08588 whole entry, looked up): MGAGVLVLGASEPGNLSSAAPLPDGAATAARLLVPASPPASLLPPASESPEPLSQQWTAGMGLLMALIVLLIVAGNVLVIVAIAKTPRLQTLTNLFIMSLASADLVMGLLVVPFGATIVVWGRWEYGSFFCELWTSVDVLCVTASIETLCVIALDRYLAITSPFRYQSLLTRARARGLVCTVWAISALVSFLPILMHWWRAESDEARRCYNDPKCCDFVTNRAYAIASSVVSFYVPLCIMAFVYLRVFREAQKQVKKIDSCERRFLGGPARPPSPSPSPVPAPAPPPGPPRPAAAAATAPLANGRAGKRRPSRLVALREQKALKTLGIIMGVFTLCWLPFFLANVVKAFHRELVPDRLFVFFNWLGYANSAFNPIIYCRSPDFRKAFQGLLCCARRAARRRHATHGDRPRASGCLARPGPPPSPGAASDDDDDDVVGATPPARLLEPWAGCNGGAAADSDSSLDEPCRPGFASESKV
Description: In vivo sympatholytic activity (isoproterenol-induced chronotropy) at beta 1-adrenergic receptor in anesthetized dog, iv

[6] = biological target: Adrenergic receptor alpha (Homo sapiens) (UniProt P35348+P08913+P18825+P25100+P35368+P18089); conditions: Canis lupus familiaris
Description: In vivo sympatholytic activity (phenylephrine-induced vasopressor response) at alpha-adrenergic receptor in anesthetized dog, iv

| Structure (SMILES) | pA2 [1] | Kb (Cavia porcellus) | BP decrease (Rattus norvegicus [2]) | BP decrease (Rattus norvegicus [3]) | Ratio (Oryctolagus cuniculus) | pA2 (Adrenergic receptor beta) | DR10 [4] | DR10 [5] | DR10 [6] |
| --- | --- | --- | --- | --- | --- | --- | --- | --- | --- |
| CCNC(=O)c1cc(C(O)CN2CCC(n3c(O)nc4ccccc43)CC2)ccc1O.Cl (stereo not given) | 6.63 | 6.92 µM | 22 mmHg | 51 mmHg | < 0.06 | < 5.38 | – | – | – |
| Cc1ccccc1N1CCN(CC(O)c2ccc(O)c(C3N=NN=N3)c2)CC1 (stereo not given) | 7.56 | > 100 µM | 48 mmHg | 47 mmHg | 0.04 | 6.14 | – | – | – |
| COC(=O)c1cc(C(O)CNC(C)CCc2ccc3c(c2)OCO3)ccc1O.Cl (stereo not given) | 5.73 | 0.126 µM | 56 mmHg | 53 mmHg | 78 | 7.62 | 5.46 mg/kg | 2.19 mg/kg | 5.82 mg/kg |
| NC(=O)c1cc(C(O)CNCC2COc3ccccc3O2)ccc1O (stereo not given) | 6.2 | 26.9 µM | 24 mmHg | 18 mmHg | 0.4 | 5.84 | – | – | – |
| COC(=O)c1cc(C(O)CNC(C)(C)CCc2ccc3c(c2)OCO3)ccc1O.Cl (stereo not given) | < 5 | 2.63 µM | 41 mmHg | 39 mmHg | – | 6.55 | – | – | – |
| NC(=O)c1cc(C(O)CN2CCN(C(=O)c3ccco3)CC2)ccc1O (stereo not given) | < 5 | > 100 µM | 30 mmHg | 28 mmHg | – | < 5 | – | – | – |
| Cl.NC(=O)c1cc(C(O)CN2CCN(c3ccccc3)CC2)ccc1O (stereo not given) | 7.04 | – | 7 mmHg | 9 mmHg | – | 4.19 | – | – | – |
| CNC(=O)c1cc(C(O)CN2CCN(c3ccccc3OC)CC2)ccc1O.Cl (stereo not given) | 7.95 | 9.55 µM | 44 mmHg | 52 mmHg | – | – | – | – | – |
| NC(=O)c1cc(C(O)CN2CCN(c3ccc(Cl)cc3)CC2)ccc1O (stereo not given) | 6.87 | 26.3 µM | 49 mmHg | 56 mmHg | 0.2 | 6.17 | – | – | – |
| Cl.NC(=O)c1cc(C(O)CN2CCN(c3ccccn3)CC2)ccc1O (stereo not given) | 6.08 | 126 µM | 16 mmHg | 13 mmHg | 0.2 | 5.37 | – | – | – |
| COc1ccc(C(O)CN2CCN(c3ccccc3OC)CC2)cc1C(N)=O.Cl (stereo not given) | 6.8 | 33.1 µM | 56 mmHg | 46 mmHg | 0.04 | 5.41 | – | – | – |
| CCOc1ccc(C(O)CN2CCN(c3ccccc3)CC2)cc1C(N)=O.Cl (stereo not given) | 6.27 | 21.4 µM | 22 mmHg | 19 mmHg | 0.1 | 5.27 | – | – | – |
| COC(=O)c1cc(C(O)CN2CCN(c3ccccc3C)CC2)ccc1O.Cl (stereo not given) | 7.45 | 0.871 µM | 5 mmHg | 6 mmHg | 0.2 | 6.79 | – | – | – |
| CNC(=O)c1cc(C(O)CN2CCN(c3ccc(OC)cc3)CC2)ccc1O.Cl (stereo not given) | 5.47 | 15.1 µM | 20 mmHg | 14 mmHg | 0.2 | 5.17 | – | – | – |
| Cl.NC(=O)c1cc(C(O)CN2CCN(c3cccc(C(F)(F)F)c3)CC2)ccc1O (stereo not given) | 6.33 | 1.82 µM | 1 mmHg | 18 mmHg | 3.7 | 6.9 | – | – | – |
| COC(=O)c1cc(C(O)CNCC2COc3ccccc3O2)ccc1O.Cl (stereo not given) | 6.21 | 4.07 µM | 46 mmHg | 31 mmHg | 0.5 | 5.92 | – | – | – |

| Structure (SMILES) | pA2 [1] | Kb (Cavia porcellus) | BP decrease (Rattus norvegicus [2]) | BP decrease (Rattus norvegicus [3]) | Ratio (Oryctolagus cuniculus) | pA2 (Adrenergic receptor beta) | DR10 [4] | DR10 [5] | DR10 [6] |
| --- | --- | --- | --- | --- | --- | --- | --- | --- | --- |
| CC(CCc1ccc2c(c1)OCO2)NCC(O)c1ccc(O)c(C(=O)N(C)C)c1.Cl (stereo not given) | 5.46 | 8.71 µM | 24 mmHg | 22 mmHg | 56 | 7.21 | – | – | – |
| CC(CCc1ccccc1)NC(C)C(O)c1ccc(O)cc1.Cl (stereo not given) [NYLIDRIN HYDROCHLORIDE] | – | – | 54 mmHg | 51 mmHg | – | – | – | – | – |
| COC(=O)c1cc(C(O)CN2CCC(n3c(O)nc4ccccc43)CC2)ccc1O.Cl (stereo not given) | 6.94 | 1.26 µM | 52 mmHg | 37 mmHg | 0.06 | 5.71 | – | – | – |
| COc1ccccc1N1CCN(CC(O)c2ccc(O)c(C(N)=O)c2)CC1.Cl (stereo not given) | 7.42 | 13.5 µM | 45 mmHg | 35 mmHg | 0.1 | 6.44 | – | – | – |
| COc1ccc(N2CCN(CC(O)c3ccc(O)c(C(N)=O)c3)CC2)cc1.Cl.Cl (stereo not given) | 6.13 | > 52.5 µM | 10 mmHg | 7 mmHg | 0.5 | 5.84 | – | – | – |
| CC(CCc1ccc2c(c1)OCO2)NCC(O)c1ccc(O)c(C(=O)O)c1.Cl (stereo not given) | 5.2 | > 100 µM | 6 mmHg | 5 mmHg | 0.8 | 5.1 | – | – | – |
| COC(=O)c1cc(C(O)CN2CCN(c3ccccc3OC)CC2)ccc1OC.Cl (stereo not given) | 7 | 34.7 µM | 37 mmHg | 35 mmHg | 0.3 | 6.41 | – | – | – |
| COC(=O)c1cc(C(O)CNC(C)CCc2ccc3c(c2)OCO3)ccc1OC.Cl (stereo not given) | 5.56 | 2.75 µM | 44 mmHg | 22 mmHg | 372 | 8.1 | – | – | – |
| COc1ccc(C(O)CN2CCN(c3ccccc3)CC2)cc1C(N)=O.Cl (stereo not given) | 6.54 | 64.6 µM | 38 mmHg | 25 mmHg | – | < 5 | – | – | – |
| CC(C)NCC(O)COc1cccc2ccccc12.Cl (stereo not given) [PROPRANOLOL HYDROCHLORIDE] | – | – | 28 mmHg | 46 mmHg | – | – | – | – | – |
| Cl.NC(=O)c1cc(C(O)CN2CCN(Cc3ccccc3)CC2)ccc1O (stereo not given) | 5.13 | > 74.1 µM | 35 mmHg | 40 mmHg | 0.9 | 5.07 | – | – | – |
| Cl.NC(=O)c1cc(C(O)CN2CCC(n3c(O)nc4ccccc43)CC2)ccc1O (stereo not given) | 6.7 | > 61.7 µM | 6 mmHg | 15 mmHg | 0.06 | 5.45 | – | – | – |
| CC(C)(CCc1ccc2c(c1)OCO2)NCC(O)c1ccc(O)c(C(N)=O)c1.Cl (stereo not given) | 5.31 | 0.676 µM | 43 mmHg | 61 mmHg | 69 | 7.15 | 0.76 mg/kg | 2.1 mg/kg | – |
| Cc1ccccc1N1CCN(CC(O)c2ccc(O)c(C(=O)NCC(C)(C)C)c2)CC1.Cl (stereo not given) | 7.21 | 0.224 µM | 41 mmHg | 32 mmHg | 0.1 | 6.33 | – | – | – |
| COC(=O)c1cc(C(O)CN2CCN(C(=O)c3ccco3)CC2)ccc1O.Cl (stereo not given) | < 5 | 17.4 µM | 37 mmHg | 15 mmHg | – | < 5 | – | – | – |
